Patent US20250296959A1, “B7-H3 TARGETING PEPTIDES AND CONSTRUCTS THEREOF” (Mariana Oncology Inc., priority 2024, published 2025)
Starred links: 1 amine or outer side, 2 acyl side, 3 side chain; linkers in the order of their positions; H or OH if unused. Positions of bridges follow the written chain, without caps; N, C: chain ends. Non-standard residues stand in square brackets, D forms with d. Residues, ends and D or L forms follow the SMILES beside them. Groups on a side chain read outwards from the residue. *: point of attachment. Ala(piperidin-4-yl) = O=C([C@H](CC1CCN([*:3])CC1)N[*:1])[*:2]; DOTA = O=C(O)CN1CCN(CC(=O)O)CCN(CC(=O)*)CCN(CC(=O)O)CC1; Trp(5-F) = N[C@@H](Cc1c[nH]c2ccc(F)cc12)C(=O)O; Ala(4-THP) = N[C@@H](CC1CCOCC1)C(=O)O; X3 = O=C([C@H](CCC1CCC1)N[*:1])[*:2]; Val(3-OH) = CC(C)(O)[C@H](N)C(=O)O; PEG4 = NCCOCCOCCOCCOCCC(=O)O; Tle = CC(C)(C)[C@H](N)C(=O)O; hLeu = CC(C)CC[C@H](N)C(=O)O

What was measured:
[1] = system: Calu-6 cell line; experiment: Cell associated (bound) fraction of [177Lu]Lu-labeled peptide in Calu-6 cells; type: cell-based, Human; settings: 1 hour, 37° C.
In short: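 Peptide conjugate was labelled with [177Lu]LuCl3 in ammonium acetate pH ~5 at 80 °C for 17-20 min, with purity checked by RP-HPLC. Calu-6 suspensions (5 million cells/mL in 1% PBSA) were incubated with 0.8 μCi for 1 h at 37 °C. Cell pellets were gamma-counted after two cold PBS/BSA washes, giving the bound fraction against the unbound supernatant plus washes.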

[2] = system: Calu-6 cell line; experiment: Net internalization of [177Lu]Lu-labeled peptide in Calu-6 cells; type: cell-based, Human; settings: 1 hour, 37° C., glycine pH 2.5 acid wash
In short: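 Peptide conjugate labeled with [177Lu]LuCl3 at pH ~5, 80 °C, 17–20 min, and purity checked by RP-HPLC. B7-H3-expressing human Calu-6 lung cancer cells at 5 million cells/mL in 1% PBSA. Internalized fraction: counts left after two 3 min 50 mM glycine pH 2.5 washes and NaOH lysis, gamma counted against bound fraction.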

[3] = molecular target: T1, human 4lg B7-H3 (Homo sapiens, UniProt Q5ZPR3); experiment: Affinity determination by surface plasmon resonance (SPR) to 4Ig B7-H3; settings: read-out: SPR KD—37° C.; 4Ig B7-H3; 37° C. flow cell temperature
T1 sequence (Q5ZPR3 29-534): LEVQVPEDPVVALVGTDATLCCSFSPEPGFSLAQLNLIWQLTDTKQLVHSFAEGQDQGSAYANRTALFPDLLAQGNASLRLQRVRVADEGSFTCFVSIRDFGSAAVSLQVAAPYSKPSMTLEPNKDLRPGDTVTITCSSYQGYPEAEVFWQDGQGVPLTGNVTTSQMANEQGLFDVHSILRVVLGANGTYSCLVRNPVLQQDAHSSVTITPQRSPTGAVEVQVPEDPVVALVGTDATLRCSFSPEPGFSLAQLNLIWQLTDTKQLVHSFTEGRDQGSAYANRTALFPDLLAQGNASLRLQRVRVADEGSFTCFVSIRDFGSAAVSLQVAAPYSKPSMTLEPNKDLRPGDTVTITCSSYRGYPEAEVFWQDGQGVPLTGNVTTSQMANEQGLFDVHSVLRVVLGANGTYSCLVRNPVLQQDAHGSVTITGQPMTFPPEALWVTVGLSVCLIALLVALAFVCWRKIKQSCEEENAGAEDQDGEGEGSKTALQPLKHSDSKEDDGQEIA

Row | SMILES | % cell associated fraction [1] | % net internalization [2] | Kd [3] [nM]
1 | CC(=O)N[C@@H](CCC(C)C)C(=O)N[C@@H](Cc1ccc(O)cc1)C(=O)N[C@H]1CSSC[C@@H](C(=O)N[C@@H](Cc2c[nH]c3ccc(F)cc23)C(=O)N[C@@H](Cc2ccccc2)C(=O)N[C@H](C(N)=O)C(C)(C)O)NC(=O)[C@H](Cc2ccc(O)cc2)NC(=O)[C@H](C(C)C)NC(=O)[C@H](CC(=O)O)NC(=O)[C@H](CC2CCN(C(=O)CCOCCOCCOCCOCCNC(=O)CN3CCN(CC(=O)O)CCN(CC(=O)O)CCN(CC(=O)O)CC3)CC2)NC(=O)[C@H](CCCCN)NC(=O)CNC(=O)[C@H](C(C)(C)C)NC1=O [compound 383, Ac-hLeu-Y-C-Tbg-G-K-Pip(PEG4-DOTA)Ala-D-V-Y-C-5FW-F-hydroxyVal-CONH2] (Ac-[hLeu]YC[Tle]GK[Ala(piperidin-4-yl)]([PEG4-DOTA])DVYC[Trp(5-F)]F[Val(3-OH)]-NH2; disulfide 3-11) | B (25<%≤50) | B (25<%≤50) | < 1
2 | CC(=O)N[C@@H](CCC(C)C)C(=O)N[C@@H](Cc1ccc(O)cc1)C(=O)N[C@H]1CSSC[C@@H](C(=O)N[C@@H](Cc2c[nH]c3ccc(F)cc23)C(=O)N[C@@H](Cc2ccccc2)C(=O)N[C@H](C(=O)N[C@H](C)C(N)=O)C(C)(C)O)NC(=O)[C@H](Cc2ccc(O)cc2)NC(=O)[C@H](C(C)C)NC(=O)[C@H](CC(=O)O)NC(=O)[C@H](CC2CCOCC2)NC(=O)[C@H](CC2CCN(C(=O)CCOCCOCCOCCOCCNC(=O)CN3CCN(CC(=O)O)CCN(CC(=O)O)CCN(CC(=O)O)CC3)CC2)NC(=O)CNC(=O)[C@H](C(C)(C)C)NC1=O [compound 384, Ac-hLeu-Y-C-Tbg-G-Pip(PEG4-DOTA)Ala-ThpA-D-V-Y-C-5FW-F-hydroxyVal-dAla-CONH2] (Ac-[hLeu]YC[Tle]G[Ala(piperidin-4-yl)]([PEG4-DOTA])[Ala(4-THP)]DVYC[Trp(5-F)]F[Val(3-OH)][dA]-NH2; disulfide 3-11) | B (25<%≤50) | A (%≤25) | < 1
3 | CC(=O)N[C@@H](CCC(C)C)C(=O)N[C@@H](Cc1ccc(O)cc1)C(=O)N[C@H]1CSSC[C@@H](C(=O)N[C@@H](Cc2c[nH]c3ccc(F)cc23)C(=O)N[C@@H](Cc2ccccc2)C(=O)N[C@H](C(=O)N[C@H](C)C(N)=O)C(C)(C)O)NC(=O)[C@H](Cc2ccc(O)cc2)NC(=O)[C@H](C(C)C)NC(=O)[C@H](CC(=O)O)NC(=O)[C@H](CC2CCN(C(=O)CCOCCOCCOCCOCCNC(=O)CN3CCN(CC(=O)O)CCN(CC(=O)O)CCN(CC(=O)O)CC3)CC2)NC(=O)[C@H](CCCCN)NC(=O)CNC(=O)[C@H](C(C)(C)C)NC1=O [compound 385, Ac-hLeu-Y-C-Tbg-G-K-Pip(PEG4-DOTA)Ala-D-V-Y-C-5FW-F-hydroxyVal-dAla-CONH2] (Ac-[hLeu]YC[Tle]GK[Ala(piperidin-4-yl)]([PEG4-DOTA])DVYC[Trp(5-F)]F[Val(3-OH)][dA]-NH2; disulfide 3-11) | C (%>50) | B (25<%≤50) | < 1
4 | CC(=O)N[C@@H](CCC1CCC1)C(=O)N[C@@H](Cc1ccc(O)cc1)C(=O)N[C@H]1CSSC[C@@H](C(=O)N[C@@H](Cc2c[nH]c3ccc(F)cc23)C(=O)N[C@@H](Cc2ccccc2)C(=O)N[C@H](C(=O)N[C@H](CCCCNC(=O)CN2CCN(CC(=O)O)CCN(CC(=O)O)CCN(CC(=O)O)CC2)C(=O)O)C(C)(C)O)NC(=O)[C@H](Cc2ccc(O)cc2)NC(=O)[C@H](C(C)C)NC(=O)[C@H](CC(=O)O)NC(=O)[C@H](CC2CCOCC2)NC(=O)[C@H](CCCCN)NC(=O)CNC(=O)[C@H](C(C)(C)C)NC1=O [compound 398, Ac-hCba-Y-C-Tbg-G-K-ThpA-D-V-Y-C-5FW-F-hydroxyVal-dLys(DOTA)-COOH] (Ac-[X3]YC[Tle]GK[Ala(4-THP)]DVYC[Trp(5-F)]F[Val(3-OH)][dK](DOTA)-OH; disulfide 3-11) | B (25<%≤50) | A (%≤25) | < 1
